Laboratory results published in US11510903B2, “Synergic pharmaceutical composition of the active enantiomer (S)-ketorolac and Gabapentin for the treatment of neuropathic pain” (priority 2018, dated 2022).

Key:
[1] = Relative pharmacological potency of S-Ketorolac tromethamine versus Rac Ketorolac and AA; conditions: fold more potent
[2] = fold more active; cited from earlier work
[3] = test system: rats with a chronic constriction injury (neuropathic pain); assay: Acetone test (cold allodynia) in rats with chronic constriction injury of the sciatic nerve; assay type: in vivo, rat (male Wistar); conditions: oral
Description: (§1) Said experimental model is based on the unilateral ligature of the sciatic nerve, which produces a chronic constriction injury, (CCI). This experimental model has shown itself to be sensitive to a number of drugs that are used clinically for the symptomatic treatment of neuropathic pain. […] The following observed behaviors are indicative of neuropathic pain: (1) autotomy, the animal injures itself in the denervated leg, (2) allodynia, withdrawal of the leg in the face of harmless stimulus that may be mechanical or cold (acetone), (3) hyperalgesia, violent withdrawal of the leg in the face of a moderate thermal or mechanical stimulus (Von Frey filaments 15 g). These aforementioned parameters have been widely used on pharmacology and the modulation of neuropathic pain. The tests that are most used to determine allodynia and hyperalgesia are: mechanical hyperalgesia with the von Frey filaments, the cold allodynia with acetone, thermal hyperalgesia with the plantar test and mechanical hyperalgesia with the pinprick test.
Male Wistar rats [Crl:(WI)fBR], with a body weight of 120-140 g at the start of the experimental phase, which weighed 160-180 g when the drugs were administered, were used for the particular study in this invention. The animals were kept in polycarbonate boxes under conditions of controlled temperature and light, with 12-hour cycles of light/dark and ad limitum water and food intake. All the experiments were carried out during the light phase. The animals were used and managed following the guidelines established in the Ethical Guidelines for Pain Research of the International Association for the Study of Pain, and following a protocol approved by the Local Committee of Ethics for the Management of Laboratory Animals. The number of experimental animals was kept to a minimum (n=6 to 8), and, at the end of the experimental determinations, the animals were sacrificed using carbon dioxide.
The model for ICC neuropathic pain described by Bennett and Xie in 1988 was standardized. The rats were anesthetized and the sciatic nerve of the rear right leg was immediately dissected, by means of an incision, dissecting the biceps femoris to locate the part that is most proximal to the trifurcation of the sciatic nerve and apply four loose ligatures with silk thread. At the end of the surgery, the muscle was sutured with absorbable thread and the skin with silk thread. The surgery of the rats falsely operated on (Sham) was done in the same way, however, the sciatic nerve was not tied. This entire procedure was performed under aseptic conditions.
The degree of hyperalgesia and allodynia in the rats submitted to the sciatic nerve surgery was determined by means of the Von Frey test and the acetone test. These determinations were made a day before the surgery and, 7 days after the surgery a time-course of 180 minutes was done for both the control (saline) and for the compounds that were administered orally, in the study, both singly and combined, to evidence the hyperalgesia and allodynia that were present. Then a time-course was made of hyperalgesia and allodynia, but now in rats with chronic treatment (1 administration/12 hours), carrying out the determinations of both hyperalgesia and allodynia 30 minutes after the morning administration of the treatments being studied and in the following period: 0, 1, 3, 5 and 7 days (14 administrations in total).
At the end of the Von Frey test, the rats were left to rest on the metal screen and after a 5-10 min period, approximately 0.1 mL of acetone was applied to the plantar surface of the rear legs using a syringe with a flexible plastic tip, below the metal grating. The time (seconds) the animal remained with its leg removed from the surface was recorded with a chronometer for 60 s after exposure to the acetone. The response time of the rear right leg was measured and three replications were made at intervals of at least 2 minutes. […]

[4] = test system: rats with a chronic constriction injury (neuropathic pain); assay: Von Frey test (mechanical hyperalgesia, 15 g filament) in rats with chronic constriction injury of the sciatic nerve; assay type: in vivo, rat (male Wistar); conditions: oral
Description: as §1
Male Wistar rats [Crl:(WI)fBR], with a body weight of 120-140 g at the start of the experimental phase, which weighed 160-180 g when the drugs were administered, were used for the particular study in this invention. The animals were kept in polycarbonate boxes under conditions of controlled temperature and light, with 12-hour cycles of light/dark and ad limitum water and food intake. All the experiments were carried out during the light phase. […]
The degree of hyperalgesia and allodynia in the rats submitted to the sciatic nerve surgery was determined by means of the Von Frey test and the acetone test. […]
The rats were placed on a metal screen in a box of transparent acrylic where they remained for at least 10 minutes to adapt before the test. The response was determined to a tactile stimulus applied to the plantar surface of the rear right leg using the 15 g von Frey filament. […]

[5] = test system: rats (lethal effects vs anti-allodynic effects); assay: Therapeutic index (DL50/DE50) and safety margin study in rats; assay type: in vivo, rat; conditions: 24 h post-treatment
Description: As further support for this invention, the therapeutic index study was also performed on rats 24 h post-treatment, which is defined as the quotient of DL50 (24 h)/DE50. From said analysis and calculation, we get that the higher the result, the safer the drug, as this indicates the number of times it is necessary to increase DE50 for it to be turned into DL50 in the population being analyzed.
In other words, in a combination of said active ingredients, the CDR (for desired effects and lethal effects) was farther apart, therefore S-Ketorolac is safer in combination, as these variables are much farther apart. […] There is less distance between the CDR (desired effects and lethal effects) of the compound alone, than between the CDR (desired effects and toxic effects) of S-Ketorolac in combination with gabapentin.

[6] = cited from earlier work
[7] = 31.6 mg/kg gabapentin alone, 1.5 h after administration

NC(CO)(CO)CO.O=C(c1ccccc1)c1ccc2n1CC[C@@H]2C(=O)O [S-Ketorolac tromethamine, S-(−)-5-Benzoyl-2,3-dihydro-1H-pyrrolizine-1-carboxylic acid of 2-amino-2-(hydroxymethyl)-1,3-propanediol (1:1)]
pharmacological potency relative to AA [1]: 1037 times | pharmacological potency relative to Rac Ketorolac [1]: 3.3 times | activity relative to the R form [2]: 75 times

O=C(c1ccccc1)c1ccc2n1CC[C@@H]2C(=O)O [S-Ketorolac]
anti-allodynic effect ([3]; 0.0316 mg/kg S-Ketorolac): almost no anti-allodynic effects | maximal anti-allodynic response ([3]; 0.316 mg/kg S-Ketorolac alone, 30 minutes after administration): 44.00±7.71% | anti-allodynic effect ([3]; 1.0 mg/kg S-Ketorolac): maximum anti-allodynic effect | maximal response for anti-hyperalgesic effects ([4]; 31.6 mg/kg S-Ketorolac alone, 1 h after administration): 43.33±5.58% | dose up to which the anti-hyperalgesic effect increased with dose ([4]; doses 0.0316-100 mg/kg, no further increase above): 3.16 mg/kg | therapeutic index, DL50 (24 h)/DE50 [5]: 18,541

NCC1(CC(=O)O)CCCCC1 [gabapentin]
anti-allodynic effect ([3]; 3.16 mg/kg gabapentin): practically does not generate anti-allodynic effects | maximal anti-allodynic response [3, 7]: 45.40±6.20% | anti-allodynic effect ([3]; 31.6 mg/kg gabapentin alone, 3 h after administration): 23.70±6.90% | anti-allodynic effect ([3]; 177.8 mg/kg gabapentin): maximum anti-allodynic effect | time of maximal anti-allodynic response after administration (latency) ([3]; gabapentin 31.6 mg/kg alone or with 0.316 mg/kg S-Ketorolac): 1.5 h | maximal response for anti-hyperalgesic effects [4, 7]: 71.67±12.50% | bioavailability ([6]; 4,800 mg/day dose): 27% | metabolism ([6]; eliminated by renal excretion): not appreciably metabolized | binding to plasma proteins ([6]; in vivo): 3% | concentration in the cephalospinal liquid as share of the concentration in plasma ([6]; patients with epilepsy): approximately 20%
